The target in test [1] is T1, RNA-binding protein pos-1 (Caenorhabditis elegans, UniProt G5EF15).
T1 sequence (G5EF15 whole entry): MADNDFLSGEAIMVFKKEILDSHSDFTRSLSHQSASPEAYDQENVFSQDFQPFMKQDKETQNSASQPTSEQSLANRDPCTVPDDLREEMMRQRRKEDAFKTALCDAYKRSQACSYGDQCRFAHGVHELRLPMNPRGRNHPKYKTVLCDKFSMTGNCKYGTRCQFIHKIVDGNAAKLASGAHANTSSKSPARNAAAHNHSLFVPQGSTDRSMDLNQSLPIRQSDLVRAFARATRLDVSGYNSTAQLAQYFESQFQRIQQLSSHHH
Description: disruptors of C. elegans POS-1 RNA interaction – biochemical, fluorescence polarization, dose response (AID 1964).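 Note: purified POS-1 fused to maltose binding protein made in E. coli; potency of compounds blocking POS-1 binding to fluorescent RNA.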 For orientation: Polarisation of emitted light reports the rotation of a fluorescent probe.

Test [2] deals with T2, Polyadenylate-binding protein 1 (Homo sapiens, UniProt P11940). The experiment in a line: MLLE binding blockers, Cy5 peptide tracer – biochemical, fluorescence polarization, Cy5-PAM2 peptide, secondary, miRNA deadenylation inhibitor project, dose response (AID 602260). The format is functional. The settings on record: read-out: IC50_Mean.
T2 sequence (P11940 whole entry, the tested form may be a part): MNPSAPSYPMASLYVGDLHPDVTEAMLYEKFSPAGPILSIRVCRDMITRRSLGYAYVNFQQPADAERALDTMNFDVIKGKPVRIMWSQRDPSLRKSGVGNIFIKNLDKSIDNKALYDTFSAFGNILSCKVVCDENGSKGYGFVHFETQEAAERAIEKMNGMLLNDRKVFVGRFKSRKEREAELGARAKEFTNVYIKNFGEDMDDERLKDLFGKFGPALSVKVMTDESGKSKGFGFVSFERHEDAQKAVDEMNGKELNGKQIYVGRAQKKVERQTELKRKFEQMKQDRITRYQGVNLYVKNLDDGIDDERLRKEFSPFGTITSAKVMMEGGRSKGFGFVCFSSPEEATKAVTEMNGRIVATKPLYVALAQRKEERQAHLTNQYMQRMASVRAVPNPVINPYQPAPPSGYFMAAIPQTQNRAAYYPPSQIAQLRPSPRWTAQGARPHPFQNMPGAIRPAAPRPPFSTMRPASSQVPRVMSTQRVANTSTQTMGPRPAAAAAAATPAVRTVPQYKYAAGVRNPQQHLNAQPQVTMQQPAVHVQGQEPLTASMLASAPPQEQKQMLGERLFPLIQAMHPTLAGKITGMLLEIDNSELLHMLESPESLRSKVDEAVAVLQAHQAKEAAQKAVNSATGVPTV
Test [3] addresses T2, Polyadenylate-binding protein 1. Description: MLLE domain peptide-binding blockers, IC50 – biochemical, fluorescence polarization, FITC-PAM2 peptide, dose response (AID 602259). Particulars: read-out: IC50_Mean. The format is functional.
Test [4] deals with Dual specificity tyrosine-phosphorylation-regulated kinase 1A (Rattus norvegicus, UniProt Q63470). The format is biochemical, Homo sapiens.
Test [5] can be described thus: Counterscreen for AddAB inhibitors: absorbance-based bacterial cell-based high throughput dose response assay for inhibitors of bacterial viability. [Related pubchem assays (depositor defined):AID435030, AID449728, AID449731, AID488942, AID488955, AID488956]. The format is functional. For orientation: The purpose of a counterscreen is to sort out artefacts and off-target activity.

The target of test [6] is T3, Zinc finger protein mex-5 (Caenorhabditis elegans, UniProt Q9XUB2).
T3 sequence (Q9XUB2 whole entry): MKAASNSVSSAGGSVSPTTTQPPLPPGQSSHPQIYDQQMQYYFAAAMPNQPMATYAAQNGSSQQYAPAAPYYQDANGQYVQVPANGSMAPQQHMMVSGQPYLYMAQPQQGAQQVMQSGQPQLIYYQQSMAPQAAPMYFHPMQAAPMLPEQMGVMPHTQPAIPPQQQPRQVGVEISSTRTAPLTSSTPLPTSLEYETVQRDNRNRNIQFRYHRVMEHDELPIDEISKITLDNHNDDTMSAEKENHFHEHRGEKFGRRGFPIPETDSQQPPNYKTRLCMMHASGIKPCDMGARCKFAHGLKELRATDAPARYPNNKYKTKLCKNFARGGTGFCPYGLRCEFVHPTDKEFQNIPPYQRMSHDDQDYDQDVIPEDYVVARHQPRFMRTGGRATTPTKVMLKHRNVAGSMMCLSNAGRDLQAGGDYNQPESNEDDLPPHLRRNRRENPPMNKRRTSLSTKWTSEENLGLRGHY
The experiment in a line: potency of MEX-5 RNA-binding blockers – biochemical, C. elegans, fluorescence polarization, dose response (AID 1960).

Activity calls are given as the source filed them.

By EC50 is commonly meant the concentration giving half of the maximal effect. Broadly, the AC50 is the concentration at which the activity in the assay is half-maximal.

In the case of `CN1CCc2cc3c(c4c2[C@H]1[C@H](O)c1ccccc1-4)OCO3`, the EC50 in test [1] is 11.9 µM (active); in test [6], 8.45 µM (inconclusive). In addition, the IC50 in test [2] is > 66 µM (inactive); in test [3], 25.8 µM (inactive); in test [5] it was > 119 µM (inactive). In test [4], the half-maximal activity concentration (AC50) is 0.877 µM (active).

The values above are taken from ChEMBL document CHEMBL1201862, “PubChem BioAssay data set” (2004).
